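48-hour exposure; five concentrations; linearly interpolated endpoints. TGI denotes the concentration required for complete inhibition of growth.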
Experiments:
Assay in all cases: NCI-60 cell line screen, 48 h
[1] = tested on: RPMI-8226 leukemia
[2] = tested on: NCI-H226 lung
[3] = tested on: KM12 colon
[4] = tested on: IGROV1 ovarian
[5] = tested on: NCI-H460 lung
[6] = tested on: CCRF-CEM leukemia
[7] = tested on: SW-620 colon
[8] = tested on: SNB-75 CNS
[9] = tested on: OVCAR-5 ovarian
[10] = tested on: HOP-62 NSCLC
[11] = tested on: MDA-MB-435
[12] = tested on: DU-145 prostate
[13] = tested on: CAKI-1 renal
[14] = tested on: NCI-H23 lung
[15] = tested on: BT-549 breast
[16] = tested on: MDA-N
[17] = tested on: RXF 393 renal
[18] = tested on: SF-539 CNS
[19] = tested on: SK-MEL-5 melanoma
[20] = tested on: SK-MEL-28 melanoma
[21] = tested on: K-562 leukemia
[22] = tested on: SF-295 CNS
[23] = tested on: SNB-19 CNS
[24] = tested on: EKVX NSCLC
[25] = tested on: SF-268 CNS
[26] = tested on: 786-0 renal
[27] = tested on: HS 578T breast
[28] = tested on: OVCAR-8 ovarian
[29] = tested on: M14 melanoma
[30] = tested on: A549 NSCLC
[31] = tested on: MOLT-4 leukemia
[32] = tested on: SR leukemia
[33] = tested on: PC-3 prostate
[34] = tested on: SK-OV-3 ovarian
[35] = tested on: SK-MEL-2 melanoma
[36] = tested on: HCT-15 colon
[37] = tested on: SN12C renal
[38] = tested on: U251 CNS
[39] = tested on: HCT-116 colon
[40] = tested on: NCI-H522 lung
[41] = tested on: HCC-2998 colon
[42] = tested on: OVCAR-3 ovarian
[43] = tested on: MCF7 breast
[44] = tested on: ACHN renal
[45] = tested on: OVCAR-4 ovarian
[46] = tested on: HOP-92 NSCLC
[47] = tested on: HT29 colon
[48] = tested on: NCI/ADR-RES ovarian
[49] = tested on: MDA-MB-231 breast
[50] = tested on: UO-31 renal
[51] = tested on: UACC-62 melanoma
[52] = tested on: UACC-257 melanoma
[53] = tested on: COLO 205 colon
[54] = tested on: A498 renal
[55] = tested on: T-47D breast
[56] = tested on: TK-10 renal
[57] = tested on: HL-60(TB) leukemia
[58] = tested on: MALME-3M melanoma

Which results are given for `NC(CCC(=O)NC(CSC(=O)N(O)c1ccc(Cl)cc1)C(=O)NCC(=O)O)C(=O)O` (stereo not drawn)?
TGI [1]: > 0.5 µM; TGI [2]: > 0.5 µM; TGI [3]: > 0.5 µM; TGI [4]: > 0.5 µM; TGI [5]: > 0.5 µM; TGI [6]: > 0.5 µM; TGI [7]: > 0.5 µM; TGI [8]: > 0.5 µM; TGI [9]: > 0.5 µM; TGI [10]: > 0.5 µM; TGI [11]: > 0.5 µM; TGI [12]: > 0.5 µM; TGI [13]: > 0.5 µM; TGI [14]: > 0.5 µM; TGI [15]: > 0.5 µM; TGI [16]: > 0.5 µM; TGI [17]: > 0.5 µM; TGI [18]: > 0.5 µM; TGI [19]: > 0.5 µM; TGI [20]: > 0.5 µM; TGI [21]: > 0.5 µM; TGI [22]: > 0.5 µM; TGI [23]: > 0.5 µM; TGI [24]: > 0.5 µM; TGI [25]: > 0.5 µM; TGI [26]: > 0.5 µM; TGI [27]: > 0.5 µM; TGI [28]: > 0.5 µM; TGI [29]: > 0.5 µM; TGI [30]: > 0.5 µM; TGI [31]: > 0.5 µM; TGI [32]: > 0.5 µM; TGI [33]: > 0.5 µM; TGI [34]: > 0.5 µM; TGI [35]: > 0.5 µM; TGI [36]: > 0.5 µM; TGI [37]: > 0.5 µM; TGI [38]: > 0.5 µM; TGI [39]: > 0.5 µM; TGI [40]: > 0.5 µM; TGI [41]: > 0.5 µM; TGI [42]: > 0.5 µM; TGI [43]: > 0.5 µM; TGI [44]: > 0.5 µM; TGI [45]: > 0.5 µM; TGI [46]: > 0.5 µM; TGI [47]: > 0.5 µM; TGI [48]: > 0.5 µM; TGI [49]: > 0.5 µM; TGI [50]: > 0.5 µM; TGI [51]: > 0.5 µM; TGI [52]: > 0.5 µM; TGI [53]: > 0.5 µM

Which TGI [2] does the source give for `O=NNc1ccc(Sc2ccc3ccccc3c2)cn1` here?
Its TGI is over 100 µM.

And the TGI [3]?
The TGI was over 100 µM.

What about the TGI [54] of the same compound?
The TGI was over 100 µM.

And the TGI [4]?
The TGI was over 100 µM.

What about the TGI [55] of the same compound?
Its TGI is 77.9 µM.

And the TGI [5]?
Its TGI is over 100 µM.

And the TGI [6]?
Its TGI is 59.6 µM.

And the TGI [7]?
The TGI was over 100 µM.

And the TGI [8]?
Its TGI is over 100 µM.

What about the TGI [9] of the same compound?
The TGI was over 100 µM.

And the TGI [10]?
The TGI was 50.2 µM.

What about the TGI [12] of the same compound?
Its TGI is 79.7 µM.

And the TGI [13]?
The TGI was over 100 µM.

What about the TGI [14] of the same compound?
Its TGI is over 100 µM.

And the TGI [56]?
Its TGI is over 100 µM.

What about the TGI [15] of the same compound?
Its TGI is 77.1 µM.

What about the TGI [16] of the same compound?
Its TGI is over 100 µM.

And the TGI [17]?
Its TGI is 4.12 µM.

And the TGI [18]?
The TGI was over 100 µM.

And the TGI [19]?
The TGI was 39.1 µM.

What about the TGI [20] of the same compound?
Its TGI is over 100 µM.

And the TGI [21]?
Its TGI is over 100 µM.

And the TGI [22]?
Its TGI is over 100 µM.

What about the TGI [57] of the same compound?
Its TGI is 24.9 µM.

What about the TGI [23] of the same compound?
Its TGI is over 100 µM.

What about the TGI [24] of the same compound?
The TGI was over 100 µM.

What about the TGI [25] of the same compound?
The TGI was over 100 µM.

What about the TGI [26] of the same compound?
Its TGI is over 100 µM.

What about the TGI [27] of the same compound?
Its TGI is over 100 µM.

And the TGI [28]?
The TGI was over 100 µM.

And the TGI [29]?
Its TGI is 60.2 µM.

And the TGI [30]?
The TGI was over 100 µM.

And the TGI [31]?
Its TGI is over 100 µM.

And the TGI [32]?
Its TGI is over 100 µM.

What about the TGI [33] of the same compound?
Its TGI is over 100 µM.

What about the TGI [34] of the same compound?
The TGI was over 100 µM.

And the TGI [35]?
The TGI was 43.4 µM.

And the TGI [36]?
The TGI was 60 µM.

What about the TGI [37] of the same compound?
Its TGI is over 100 µM.

What about the TGI [38] of the same compound?
The TGI was over 100 µM.

What about the TGI [58] of the same compound?
The TGI was 35.6 µM.

And the TGI [39]?
The TGI was 40.6 µM.

What about the TGI [40] of the same compound?
Its TGI is 54 µM.

And the TGI [41]?
Its TGI is 31.2 µM.

What about the TGI [42] of the same compound?
The TGI was over 100 µM.

What about the TGI [43] of the same compound?
Its TGI is over 100 µM.

What about the TGI [44] of the same compound?
The TGI was over 100 µM.

What about the TGI [45] of the same compound?
Its TGI is over 100 µM.

What about the TGI [47] of the same compound?
Its TGI is over 100 µM.

And the TGI [48]?
The TGI was 89.4 µM.

And the TGI [49]?
Its TGI is over 100 µM.

And the TGI [50]?
The TGI was over 100 µM.

And the TGI [51]?
The TGI was over 100 µM.

And the TGI [52]?
The TGI was over 100 µM.

What about the TGI [53] of the same compound?
Its TGI is over 100 µM.

— PubChem BioAssay (NCI)
